# Source: the supplement of paper PMC10307832
# Experiments:
# Test in all cases: relative viability (nuclei count vs DMSO), 5 days (fraction); higher = more cells survive
# [1] = test system: NCI-H1437
# Method in brief: (§1)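 Relative viability is defined as nuclei in treated wells over nuclei in vehicle wells. Duplicate plates were run and medians reported. Lung cancer cell lines in 1536-well plates were dosed by pin tool one day after seeding, with one drug or with a fixed anchor-drug dose plus five library-drug doses (not always all listed) in √10 steps, and nuclei were counted after 5 days.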
# [2] = test system: BEN
# Method in brief: as §1
# [3] = test system: LXF-289
# Method in brief: as §1
# [4] = test system: HARA
# Method in brief: as §1
# [5] = test system: A-427
# Method in brief: as §1
# [6] = test system: LK-2
# Method in brief: as §1
# [7] = test system: NCI-H1793
# Method in brief: as §1
# [8] = test system: LOU-NH91
# Method in brief: as §1
# [9] = test system: NCI-H2405
# Method in brief: as §1
# [10] = test system: NCI-H1993
# Method in brief: as §1
# [11] = test system: NCI-H2085
# Method in brief: as §1
# [12] = test system: NCI-H3122
# Method in brief: as §1
# [13] = test system: NCI-H1755
# Method in brief: as §1
# [14] = test system: NCI-H2342
# Method in brief: as §1
# [15] = test system: RERF-LC-KJ
# Method in brief: as §1
# [16] = test system: LU99A
# Method in brief: as §1
# [17] = test system: PC-14
# Method in brief: as §1
# [18] = test system: NCI-H661
# Method in brief: as §1
# [19] = test system: NCI-H23
# Method in brief: as §1
# [20] = test system: LCLC-103H
# Method in brief: as §1
# [21] = test system: NCI-H2170
# Method in brief: as §1
# [22] = test system: NCI-H1666
# Method in brief: as §1
compound,measurement,setting,value
C=C1C(=O)O[C@@H](CCCCCCCC)[C@@H]1C(=O)O [C-75] + CC(=O)Nc1cccc(-n2c(=O)n(C3CC3)c(=O)c3c(Nc4ccc(I)cc4F)n(C)c(=O)c(C)c32)c1 [Trametinib] (partner 0.02 µM),relative viability,[1]; first compound 0.08 µM,0.514
same,relative viability,[1]; first compound 0.253 µM,0.699
same,relative viability,[1]; first compound 0.8 µM,0.454
same,relative viability,[1]; first compound 8 µM,0.586
same,relative viability,[2]; first compound 0.08 µM,0.993
same,relative viability,[2]; first compound 0.253 µM,1.2
same,relative viability,[2]; first compound 0.8 µM,0.995
same,relative viability,[2]; first compound 2.53 µM,1.14
same,relative viability,[2]; first compound 8 µM,0.989
same,relative viability,[3]; first compound 0.08 µM,0.646
same,relative viability,[3]; first compound 0.253 µM,0.683
same,relative viability,[3]; first compound 0.8 µM,0.657
same,relative viability,[3]; first compound 2.53 µM,0.664
same,relative viability,[3]; first compound 8 µM,0.672
same,relative viability,[4]; first compound 0.08 µM,0.662
same,relative viability,[4]; first compound 0.253 µM,0.931
same,relative viability,[4]; first compound 0.8 µM,0.766
same,relative viability,[4]; first compound 2.53 µM,0.587
same,relative viability,[4]; first compound 8 µM,0.646
same,relative viability,[5]; first compound 0.08 µM,0.78
same,relative viability,[5]; first compound 0.253 µM,0.84
same,relative viability,[5]; first compound 0.8 µM,0.655
same,relative viability,[5]; first compound 2.53 µM,0.665
same,relative viability,[5]; first compound 8 µM,0.701
same,relative viability,[6]; first compound 0.08 µM,0.719
same,relative viability,[6]; first compound 0.253 µM,1.31
same,relative viability,[6]; first compound 0.8 µM,0.822
same,relative viability,[6]; first compound 2.53 µM,0.521
same,relative viability,[6]; first compound 8 µM,0.575
same,relative viability,[7]; first compound 0.08 µM,0.356
same,relative viability,[7]; first compound 0.253 µM,0.509
same,relative viability,[7]; first compound 2.53 µM,0.356
same,relative viability,[7]; first compound 8 µM,0.409
same,relative viability,[8]; first compound 0.08 µM,0.802
same,relative viability,[8]; first compound 0.253 µM,0.712
same,relative viability,[8]; first compound 0.8 µM,0.762
same,relative viability,[8]; first compound 8 µM,0.782
same,relative viability,[9]; first compound 0.08 µM,0.635
same,relative viability,[9]; first compound 0.253 µM,0.47
same,relative viability,[9]; first compound 0.8 µM,0.691
same,relative viability,[9]; first compound 2.53 µM,0.575
same,relative viability,[9]; first compound 8 µM,0.784
same,relative viability,[10]; first compound 0.08 µM,0.573
same,relative viability,[10]; first compound 0.253 µM,0.541
same,relative viability,[10]; first compound 0.8 µM,0.507
same,relative viability,[10]; first compound 2.53 µM,0.576
same,relative viability,[10]; first compound 8 µM,0.557
same,relative viability,[11]; first compound 0.08 µM,0.519
same,relative viability,[11]; first compound 0.253 µM,0.666
same,relative viability,[11]; first compound 0.8 µM,0.466
same,relative viability,[11]; first compound 2.53 µM,0.559
same,relative viability,[11]; first compound 8 µM,0.521
same,relative viability,[12]; first compound 0.08 µM,0.261
same,relative viability,[12]; first compound 0.253 µM,0.243
same,relative viability,[12]; first compound 0.8 µM,0.218
same,relative viability,[12]; first compound 2.53 µM,0.143
same,relative viability,[12]; first compound 8 µM,0.259
same,relative viability,[13]; first compound 0.08 µM,0.763
same,relative viability,[13]; first compound 0.253 µM,0.748
same,relative viability,[13]; first compound 0.8 µM,0.76
same,relative viability,[13]; first compound 2.53 µM,0.677
same,relative viability,[13]; first compound 8 µM,0.702
same,relative viability,[14]; first compound 0.08 µM,0.956
same,relative viability,[14]; first compound 0.253 µM,0.813
same,relative viability,[14]; first compound 0.8 µM,0.687
same,relative viability,[14]; first compound 2.53 µM,0.65
same,relative viability,[14]; first compound 8 µM,0.917
same,relative viability,[15]; first compound 0.08 µM,0.874
same,relative viability,[15]; first compound 0.253 µM,0.945
same,relative viability,[15]; first compound 0.8 µM,0.925
same,relative viability,[15]; first compound 2.53 µM,0.918
same,relative viability,[15]; first compound 8 µM,0.866
same,relative viability,[16]; first compound 0.08 µM,0.526
same,relative viability,[16]; first compound 0.253 µM,0.528
same,relative viability,[16]; first compound 0.8 µM,0.475
same,relative viability,[16]; first compound 2.53 µM,0.562
same,relative viability,[16]; first compound 8 µM,0.527
same,relative viability,[17]; first compound 0.08 µM,0.902
same,relative viability,[17]; first compound 0.253 µM,0.811
same,relative viability,[17]; first compound 0.8 µM,0.724
same,relative viability,[17]; first compound 2.53 µM,0.78
same,relative viability,[17]; first compound 8 µM,0.731
same,relative viability,[18]; first compound 0.08 µM,0.524
same,relative viability,[18]; first compound 0.253 µM,0.612
same,relative viability,[18]; first compound 0.8 µM,0.516
same,relative viability,[18]; first compound 2.53 µM,0.429
same,relative viability,[18]; first compound 8 µM,0.458
same,relative viability,[19]; first compound 0.08 µM,0.361
same,relative viability,[19]; first compound 0.253 µM,0.436
same,relative viability,[19]; first compound 0.8 µM,0.343
same,relative viability,[19]; first compound 2.53 µM,0.291
same,relative viability,[19]; first compound 8 µM,0.321
same,relative viability,[20]; first compound 0.08 µM,0.64
same,relative viability,[20]; first compound 0.253 µM,0.703
same,relative viability,[20]; first compound 0.8 µM,0.624
same,relative viability,[20]; first compound 2.53 µM,0.547
same,relative viability,[20]; first compound 8 µM,0.721
same,relative viability,[21]; first compound 0.08 µM,0.962
same,relative viability,[21]; first compound 0.253 µM,0.924
same,relative viability,[21]; first compound 0.8 µM,0.941
same,relative viability,[21]; first compound 2.53 µM,0.849
same,relative viability,[21]; first compound 8 µM,0.85
same,relative viability,[22]; first compound 0.08 µM,0.869
same,relative viability,[22]; first compound 0.253 µM,1.01
same,relative viability,[22]; first compound 0.8 µM,0.807
same,relative viability,[22]; first compound 8 µM,0.728
